Laboratory results as given in US12600732B2, “Bifunctional compounds for degrading BTK via ubiquitin proteosome pathway” (NURIX THERAPEUTICS, INC., priority 2019, dated 2026).

Tests used:
[1] = system: primary human T cells; test: T cell activation assay, CD25 and CD69 staining (flow cytometry); type: cell-based; details: for CD25 Staining Anti-CD3/Anti-CD28 Stimulation / CD69 Staining Anti-CD3/Anti-CD28 Stimulation: fold-change of response relative to baseline
Outline: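 Primary human T cells stimulated via TCR with anti-CD3/anti-CD28 in the presence of test compound. IL-2 secretion measured by ELISA; surface CD25 and CD69 by flow cytometry. Values are fold-change versus anti-CD3/anti-CD28 stimulation without compound.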

[2] = system: Rec-1 cells; test: Cell viability assay (CellTiter-Glo), Rec-1 cells; type: cell-based
Excerpt: This example evaluates effects of CTM-mediated degradation on cell viability. […] Mino and Rec-1 are models of Mantle Cell Lymphoma, which is sensitive to IMiDs.

[3] = target: T1, BTK (Mus musculus, UniProt P35991); test: In vivo degradation of BTK in mouse PD experiments with oral dosing; details: 24 h
T1 construct: from tissue; host or cells: mouse blood B cells / splenocytes (CD-1 or BALB/c)
T1 sequence (P35991 whole entry): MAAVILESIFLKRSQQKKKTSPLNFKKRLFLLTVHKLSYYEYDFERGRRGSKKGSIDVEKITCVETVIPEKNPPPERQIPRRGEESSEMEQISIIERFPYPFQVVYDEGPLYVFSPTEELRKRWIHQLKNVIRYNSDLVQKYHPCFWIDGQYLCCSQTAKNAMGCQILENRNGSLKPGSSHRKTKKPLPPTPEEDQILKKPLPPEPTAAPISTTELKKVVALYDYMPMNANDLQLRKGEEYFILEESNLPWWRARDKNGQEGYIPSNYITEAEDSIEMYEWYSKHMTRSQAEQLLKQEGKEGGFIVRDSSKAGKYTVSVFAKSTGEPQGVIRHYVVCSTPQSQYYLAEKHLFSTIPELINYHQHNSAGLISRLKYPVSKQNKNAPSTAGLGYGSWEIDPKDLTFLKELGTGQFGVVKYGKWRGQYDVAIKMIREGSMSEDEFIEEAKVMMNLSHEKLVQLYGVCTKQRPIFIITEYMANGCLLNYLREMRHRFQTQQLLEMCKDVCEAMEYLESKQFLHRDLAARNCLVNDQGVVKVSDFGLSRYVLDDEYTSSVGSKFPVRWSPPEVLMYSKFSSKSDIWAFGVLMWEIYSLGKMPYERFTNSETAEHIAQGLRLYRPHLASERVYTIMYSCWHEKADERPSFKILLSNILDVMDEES
Outline: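 CD-1 or BALB/c mice dosed by oral gavage, screens at 90 mg/kg for 6 h, later at lower doses/longer times. Blood or splenocyte BTK measured by intracellular flow cytometry (or HTRF); % degradation from B-cell minus T-cell BTK geometric MFI, relative to vehicle.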

[4] = system: BTK; test: PD data from cyno (BTK degradation); type: in vivo; details: blood
Excerpt: In this example, compounds were profiled for activity in non-mouse species.

[5] = Compound plasma exposure in cyno DRF study; type: in vivo; details: cynomolgus monkey, po
Experimental: This example evaluates compound plasma concentration which results in in vivo BTK and/or Aiolos degradation in cyno. The data in the table below is from a study in which animals were dosed daily with the designated oral dose. Analysis for compound concentration in plasma was performed twenty-four hours following the previous dose.

[6] = target: T2, TEC kinase (Homo sapiens, UniProt P42680); test: TEC kinase degradation in K562 cells (western blot); type: cell-based; details: FIGS. 13A-13D
T2 construct: endogenous in cells; host or cells: K562
T2 sequence (P42680 1-631): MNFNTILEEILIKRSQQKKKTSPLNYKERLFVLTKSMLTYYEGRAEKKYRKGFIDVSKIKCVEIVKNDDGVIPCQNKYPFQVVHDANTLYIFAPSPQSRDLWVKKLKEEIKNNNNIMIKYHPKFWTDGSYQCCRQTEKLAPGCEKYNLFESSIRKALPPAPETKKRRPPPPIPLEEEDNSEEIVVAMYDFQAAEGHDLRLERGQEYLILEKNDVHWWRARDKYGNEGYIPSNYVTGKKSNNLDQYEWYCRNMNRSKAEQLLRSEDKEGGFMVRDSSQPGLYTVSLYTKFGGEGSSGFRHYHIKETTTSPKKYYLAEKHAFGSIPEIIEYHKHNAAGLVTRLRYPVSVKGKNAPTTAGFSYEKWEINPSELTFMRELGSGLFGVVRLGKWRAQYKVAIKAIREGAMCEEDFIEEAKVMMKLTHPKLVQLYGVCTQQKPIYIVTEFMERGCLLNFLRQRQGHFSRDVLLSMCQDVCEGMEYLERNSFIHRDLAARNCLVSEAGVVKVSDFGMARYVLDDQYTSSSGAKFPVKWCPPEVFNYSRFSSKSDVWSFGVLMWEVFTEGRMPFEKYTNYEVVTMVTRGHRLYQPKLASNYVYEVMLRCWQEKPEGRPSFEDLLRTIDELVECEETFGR
Experimental: To determine effects of BTK CTMs on TEC levels in cells, K562 cells were treated for four hours with CTMs at concentrations between 0.026-2000 nM. TEC levels in cell lysate was assessed by western blot.

[7] = 10 mg/kg, 10 mg/kg PO, 14 days of dosing
[8] = 30 mg/kg, 30 mg/kg PO, 14 days of dosing

With NC(=O)c1ncc(N2CCCCC2)nc1Nc1ccc(C2CCN(C[C@@H]3CCN(c4ccc5c(c4)C(=O)N(C4CCC(=O)NC4=O)C5=O)C3)CC2)cc1 (some centres unmarked) [Compound 149] the “CD25 Staining Anti-CD3/Anti-CD28 Stimulation” value ([1]; 1.4 nM) was 1.31, the “CD69 Staining Anti-CD3/Anti-CD28 Stimulation” value ([1]; 1.4 nM) was 1.22 and the “CD25 Staining Anti-CD3/Anti-CD28 Stimulation” value ([1]; 37 nM) was 1.02. For the same compound, the “CD69 Staining Anti-CD3/Anti-CD28 Stimulation” value ([1]; 37 nM) was 0.93, the “CD25 Staining Anti-CD3/Anti-CD28 Stimulation” value ([1]; 333 nM) was 0.61 and the “CD69 Staining Anti-CD3/Anti-CD28 Stimulation” value ([1]; 333 nM) was 0.63. For the same compound, the “expression of CD25 and CD69 compared to baseline (anti-CD3/anti-CD28 stimulation alone)” value ([1]; primary human T cells) was “unchanged or decreased levels”, the EC50 ([2]; Homo sapiens, Rec1, treatment time 72 h) was 0.17 nM and the “EMAX (% viable cells)” value ([2]; treatment time 72 h) was 24%. The “% BTK Remaining” value ([3]; oral dose 10 mg/kg, blood, flow cytometry) was 27%, the “% BTK Remaining” value ([3]; oral dose 10 mg/kg, splenocytes, HTRF) was 21% and the “% BTK Remaining” value ([3]; oral dose 30 mg/kg, blood, flow cytometry) was 11%. For the same compound, the “% BTK Remaining” value ([3]; oral dose 30 mg/kg, splenocytes, HTRF) was 8%, the “% BTK Remaining” value ([3]; oral dose 90 mg/kg, blood, flow cytometry) was 1% and the “% BTK Remaining” value ([3]; oral dose 90 mg/kg, splenocytes, HTRF) was 1%. The “% BTK Remaining” value ([4]; 1 mg/kg IV, 2 h) was 24%, the “% BTK Remaining” value ([4]; 1 mg/kg IV, 4 h) was 9% and the “% BTK Remaining” value ([4]; 1 mg/kg IV, 8 h) was 4%. The “% BTK Remaining” value ([4]; 1 mg/kg IV, 24 h) was 7%, the “% BTK Remaining” value ([4]; 10 mg/kg PO, 2 h) was 81% and the “% BTK Remaining” value ([4]; 10 mg/kg PO, 4 h) was 39%. The “% BTK Remaining” value ([4]; 10 mg/kg PO, 8 h) was 17%, the “% BTK Remaining” value ([4]; 10 mg/kg PO, 24 h) was 12% and the “% BTK Remaining” value ([4]; 30 mg/kg PO, 2 h) was 89%. For the same compound, the “% BTK Remaining” value ([4]; 30 mg/kg PO, 4 h) was 51%, the “% BTK Remaining” value ([4]; 30 mg/kg PO, 8 h) was 26% and the “% BTK Remaining” value ([4]; 30 mg/kg PO, 24 h) was 19%. The “% BTK Remaining” value ([4]; 100 mg/kg PO, 2 h) was 97%, the “% BTK Remaining” value ([4]; 100 mg/kg PO, 4 h) was 56% and the “% BTK Remaining” value ([4]; 100 mg/kg PO, 8 h) was 20%. The “% BTK Remaining” value ([4]; 100 mg/kg PO, 24 h) was 12%, the Cmax ([5]; 10 mg/kg, 10 mg/kg PO, 1 day of dosing) was 42 nM and the AUC [5, 7] was 0.763 µM·h. The Cmax [5, 7] was 49 nM, the Cmax ([5]; 30 mg/kg, 30 mg/kg PO, 1 day of dosing) was 51 nM and the AUC [5, 8] was 1.48 µM·h. The Cmax [5, 8] was 88 nM, the AUC ([5]; 100 mg/kg, 100 mg/kg PO, 1 day of dosing) was 0.714 µM·h and the Cmax ([5]; 100 mg/kg, 100 mg/kg PO, 14 days of dosing) was 159 nM. The “degradation of BTK compared with TEC” value [6] was “more potent degradation of BTK than TEC” and the “effects on TEC kinase levels” value ([6]; four hours, 0.026-2000 nM, western blot) was “mild to moderate effects”.
